Values of other authors, collected in paper PMC7984154 (Chemmedchem, 2020).

Tests used:
FAP = details: cancer indications, also in combination with other chemotherapies
[1] = steady state, oral dose of 5 mg

Row | Compound | efficacy in the clinical setting (FAP) | maximal plasma concentrations (single dose 600 mg) [µM] | highest tolerable dose (single rising dose studies) [mg] | clinical maximum plasma concentration [1] [nM]
1 | CC(C)[C@H](N)C(=O)N1CCC[C@H]1B(O)O [PT100, talabostat] | minimal efficacy | – | – | –
2 | CC#CCn1c(N2CCC[C@@H](N)C2)nc2c1c(=O)n(Cc1nc(C)c3ccccc3n1)c(=O)n2C [linagliptin] | – | ~4 | 600 | 12
